Laboratory results reported in patent US20160303245A1, “FATTY ACID DERIVATIVES OF DIMERIC INHIBITORS OF PSD-95” (UNIVERSITY OF COPENHAGEN, priority 2013, published 2016).
Like-named read-outs stand apart in the source and are kept apart here.

Tests used:
[1] = In vivo pharmacokinetics, blood concentration by LC-MS/MS after single s.c. bolus injection; design: species or system male Wistar rats; conditions: sc, rat
Text: To determine the pharmacokinetic properties of FA-linked compounds we measured the concentration of selected compounds in blood by LC-MS/MS following a single subcutaneous (s.c.) bolus injection in male Wistar rats (FIG. 5). From this, it was apparent that all FA-linked dimeric ligands have longer T1/2 and greater Tmax than dimeric ligand without FA (UCCB01-125) (Table 4 and FIG. 5). […] The increased Tmax is explained by a prolonged absorption from the injection site. Overall, these properties enable administration by s.c.depot injections and thereby slow and consistent release of compound into the blood, whereby fewer administrations are needed to maintain pharmaceutical relevant blood concentrations.

[2] = target: T1, HSA (Homo sapiens, UniProt P02768); test: Transil XL HSA binding assay (immobilized HSA, unbound compound quantified by RP-HPLC)
T1 construct: purchased Sovicell GMBH, Leipzig, Germany
T1 sequence (P02768 25-609): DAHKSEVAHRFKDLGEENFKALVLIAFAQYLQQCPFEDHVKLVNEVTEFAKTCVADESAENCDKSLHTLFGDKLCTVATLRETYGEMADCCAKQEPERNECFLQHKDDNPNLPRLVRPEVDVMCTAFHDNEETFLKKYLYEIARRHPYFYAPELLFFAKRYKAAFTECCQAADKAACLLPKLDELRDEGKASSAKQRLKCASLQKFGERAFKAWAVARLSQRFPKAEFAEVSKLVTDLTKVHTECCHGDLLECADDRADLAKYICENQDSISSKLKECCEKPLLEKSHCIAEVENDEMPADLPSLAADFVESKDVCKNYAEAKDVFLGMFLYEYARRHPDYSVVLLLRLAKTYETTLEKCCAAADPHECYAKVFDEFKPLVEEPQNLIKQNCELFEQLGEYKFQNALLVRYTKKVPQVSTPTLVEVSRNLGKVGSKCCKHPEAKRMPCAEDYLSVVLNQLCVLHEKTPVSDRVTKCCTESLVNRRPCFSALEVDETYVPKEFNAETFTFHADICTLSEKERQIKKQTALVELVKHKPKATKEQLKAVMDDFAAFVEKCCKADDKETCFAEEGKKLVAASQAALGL
Procedure: The synthesized FA-linked dimeric ligands (1-12) were evaluated for their HSA affinity using a Transil^XL HSA binding assay kit (Sovicell GMBH, Leipzig, Germany). […] The assay kit consisted of prefilled wells with increasing concentrations of immobilized HSA as well as two control wells without HSA. The HSA had been immobilized in a random fashion to ensure that all binding sites on HSA were available. To conduct the assay, the wells were incubated with a known concentration of the tested compounds, and the unbound amount of compound was quantified using analytical RP-HPLC (C8 column). The fraction of unbound drug (fu) for each data point was calculated from the RP-HPLC data by comparison to a control sample without HSA. […] In eq. 1, it is assumed that the concentration of drug-bound HSA ([HSA-D]) is much lower than the total concentration of HSA in the well ([HSA-D]<<cHSA). The assay kit has been designed such that the assumption is valid for compounds where fu>1%. The calculated KD-values were used to calculate fb at physiological concentration of HSA (588 μM) using equation 2.

[3] = target: PSD-95 PDZ1-2 (Homo sapiens, UniProt P78352); test: In vitro fluorescence polarization (FP) competition binding assay, in TBS and modified with 1% HSA
Chain of PSD-95 PDZ1-2 (P78352 61-249 limits assumed): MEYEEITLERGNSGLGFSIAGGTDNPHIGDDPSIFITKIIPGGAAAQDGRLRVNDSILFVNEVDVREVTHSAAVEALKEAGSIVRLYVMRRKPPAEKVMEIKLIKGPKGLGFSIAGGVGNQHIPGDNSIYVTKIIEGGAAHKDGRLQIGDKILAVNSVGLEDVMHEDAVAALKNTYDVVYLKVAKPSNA
Procedure: Affinity to PSD-95 was measured using an in vitro fluorescence polarization (FP) assay as described by Bach et al (PNAS USA, 2012, 109, 3317-3322). First, a saturation binding curve was obtained to determine KD values for the interaction between a dimeric fluorescent probe and PSD-95 PDZ1-2. Increasing concentrations of PDZ1-2 were added to a constant concentration (0.5 nM) of the probe. The fluorescence polarization of the samples was measured at excitation/emission wavelengths of 635/670 nm and the FP values were fitted to a one site binding model using the program GraphPad Prism. […] The FP values were fitted to a one site competition (variable slope) model in GraphPad Prism. The resulting IC50 were converted to competition inhibition constants, Ki values, as described (Nikolovska-Coleska et al, Anal Biochem, 2004, 332, 261-273). The modified FP assay was conducted as described above with 1% HSA in the assay. The synthesized FA-linked dimeric ligands were evaluated for their affinity to PSD-95 PDZ1-2 in the FP assay. […] We first measured the affinities using a simple tris-buffered saline (TBS) buffer (Table 2, FIG. 3A); but furthermore, we investigated if HSA influenced the ability of the FA-linked dimers to bind PSD95 PDZ1-2 by conducting the FP assay with HSA present in the assay buffer (Table 2, FIG. 3B). […] For a traditional small-molecule drug, it is commonly accepted that the unbound fraction of the drug is free to diffuse across membranes and exerts the physiological effect by interacting with its target (Berezhkovskiy et al, J Pharm Sci 2007, 96, 249-257). I.e. if the drug is bound to another molecule, then it cannot interact with the target at the same time.

[4] = In vitro plasma stability assay (modified, GnHCl before TCA precipitation); assay type: in vitro ADME; conditions: human plasma; for half-life: 1st order decay fit
Procedure: The plasma-stability of 1, 4, 7 and 13 was evaluated in a modified version of an in vitro plasma stability assay (Bach et al, Angew. Chem, Int. Ed, 2009, 48, 9685-9689). In the original procedure, the investigated compound was incubated in human plasma. Samples were then taken out at appropriate timepoints and the serum proteins were removed by precipitation with trichloroacetic acid (TCA) followed by analysis of the supernatants by RP-HPLC. The obtained peak areas were normalized to the amount at T0 and fitted to a 1st order decay model to calculate the half-life. When this method was applied to the FA-linked dimeric ligands, sample recoveries were low (<5%). This was caused by the removal of the FA-linked dimeric ligands as HSA-bound complexes during the TCA precipitation. Therefore dissolution of the sample in solid guanidine hydrochloride (GnHCI) to a final concentration of 6M was performed prior to the TCA precipitation. The purpose of this was to unfold the HSA in the sample, releasing the FA-linked dimeric ligand.

[5] = dose 10 mg/kg, mean ± SEM, n = 3
[6] = FP data (TBS+HSA) corrected for calculated fu, read-out: Ki(PSD95), free ligand
[7] = FP in TBS with 1% HSA (~150 μM), mean ± SEM, n ≧ 3, read-out: Ki(PSD95) + HSA
[8] = FP in TBS, mean ± SEM, n ≧ 3, read-out: Ki(PSD95)
[9] = dose 15 mg/kg, mean ± SEM, n = 3
[10] = dose 3 mg/kg, mean ± SEM, n = 3
[11] = dose 30 mg/kg, mean ± SEM, n = 3

| SMILES | Tmax [1, 5] | half-life [1, 5] | half-life ([1]; single s.c. bolus injection) | Kd [2] | fraction unbound [2] | Ki [3, 6] | Ki [3, 7] | Ki [3, 8] | In vitro plasma stability [4] | half-life [4] | Tmax [1, 9] | half-life [1, 9] | Tmax [1, 10] | half-life [1, 10] | Tmax [1, 11] | half-life [1, 11] |
| --- | --- | --- | --- | --- | --- | --- | --- | --- | --- | --- | --- | --- | --- | --- | --- | --- |
| CCCCCCCCCCCCCCCCCC(=O)N[C@@H](CCC(=O)N(CCOCCOCCC(=O)N[C@H](C(=O)N[C@@H](CCC(=O)O)C(=O)N[C@H](C(=O)N[C@@H](C)C(=O)N[C@H](C(=O)O)C(C)C)[C@@H](C)O)[C@@H](C)CC)CCOCCOCCC(=O)N[C@H](C(=O)N[C@@H](CCC(=O)O)C(=O)N[C@H](C(=O)N[C@@H](C)C(=O)N[C@H](C(=O)O)C(C)C)[C@@H](C)O)[C@@H](C)CC)C(=O)O [Compound 7] | 6 ± 1.15 h | 10.7 ± 0.58 h | > 8 h | 6.8 ± 1.2 µM | 0.043 | 0.0591 µM | 1.39 ± 0.184 µM | 0.017 µM | highly stable | > 24 h | – | – | – | – | – | – |
| CC[C@H](C)[C@H](NC(=O)CCOCCOCCOCCOCCOCCC(=O)N[C@H](C(=O)N[C@@H](CCC(=O)O)C(=O)N[C@H](C(=O)N[C@@H](C)C(=O)N[C@H](C(=O)O)C(C)C)[C@@H](C)O)[C@@H](C)CC)C(=O)N[C@@H](CCC(=O)O)C(=O)N[C@H](C(=O)N[C@@H](C)C(=O)N[C@H](C(=O)O)C(C)C)[C@@H](C)O [UCCB01-125, reference compound] | – | – | – | 154 µM | 0.507 | – | – | – | – | 1.7 h | – | – | 0.5 h | 0.561 ± 0.101 h | 0.5 h | 0.45 ± 0.068 h |
| CC[C@H](C)[C@H](NC(=O)CCOCCOCCN(CCOCCOCCC(=O)N[C@H](C(=O)N[C@@H](CCC(=O)O)C(=O)N[C@H](C(=O)N[C@@H](C)C(=O)N[C@H](C(=O)O)C(C)C)[C@@H](C)O)[C@@H](C)CC)C(=O)CCCNC(=O)CCCCCCCCCCCCCCCCC(=O)O)C(=O)N[C@@H](CCC(=O)O)C(=O)N[C@H](C(=O)N[C@@H](C)C(=O)N[C@H](C(=O)O)C(C)C)[C@@H](C)O [Compound 4] | – | – | > 8 h | 19.4 ± 3.6 µM | 0.115 | 0.654 ± 0.034 µM | 5.72 ± 0.298 µM | 0.0114 ± 0.0006 µM | highly stable | > 24 h | 4.67 ± 0.66 h | 8.13 ± 0.5 h | – | – | – | – |

The next lines start with the values.

| Tmax [1, 5] | half-life [1, 5] | half-life ([1]; single s.c. bolus injection) | Kd [2] | fraction unbound [2] | Ki [3, 6] | Ki [3, 7] | Ki [3, 8] | In vitro plasma stability [4] | half-life [4] | Tmax [1, 9] | half-life [1, 9] | Tmax [1, 10] | half-life [1, 10] | Tmax [1, 11] | half-life [1, 11] | SMILES |
| --- | --- | --- | --- | --- | --- | --- | --- | --- | --- | --- | --- | --- | --- | --- | --- | --- |
| – | – | – | – | 0.151 | – | – | – | degraded faster | 23.6 h | 0.833 ± 0.167 h | 0.768 ± 0.045 h | – | – | – | – | CCCCCCCCCCCC(=O)NCCCC(=O)N(CCOCCOCCC(=O)N[C@H](C(=O)N[C@@H](CCC(=O)O)C(=O)N[C@H](C(=O)N[C@@H](C)C(=O)N[C@H](C(=O)O)C(C)C)[C@@H](C)O)[C@@H](C)CC)CCOCCOCCC(=O)N[C@H](C(=O)N[C@@H](CCC(=O)O)C(=O)N[C@H](C(=O)N[C@@H](C)C(=O)N[C@H](C(=O)O)C(C)C)[C@@H](C)O)[C@@H](C)CC [Compound 1] |
| 8 h | 16.3 ± 2.81 h | > 8 h | 83 µM | 0.356 | – | – | – | highly stable | > 24 h | – | – | – | – | – | – | CCCCCCCCCCCCCCCCCC(=O)NCCCC(=O)N(CCOCCOCCC(=O)N[C@H](C(=O)N[C@@H](CCC(=O)O)C(=O)N[C@H](C(=O)N[C@@H](CC(=O)O)C(=O)N[C@H](C(=O)O)C(C)C)[C@@H](C)O)[C@@H](C)CC)CCOCCOCCC(=O)N[C@H](C(=O)N[C@@H](CCC(=O)O)C(=O)N[C@H](C(=O)N[C@@H](CC(=O)O)C(=O)N[C@H](C(=O)O)C(C)C)[C@@H](C)O)[C@@H](C)CC [Compound 13] |
